Values after ≈ are worked out from the molar mass of the structure shown. Active and inactive are the calls of the source. The calls are words filed in the database; no cut-off is given here.

This note sets out measurements from ChEMBL document CHEMBL1136088, “Antitumor agents. Part 218: Cappamensin A, a new In vitro anticancer principle, from Capparis sikkimensis” (2003).

A short description of assay [1]: In vitro anticancer activity against human epidermoid nasopharyngeal tumor cell line (KB). The conditions noted are these: for EC50: read-out: ED50 (the source's name). The class given is functional.
Assay [2] can be described thus: In vitro anticancer activity against human ovarian cancer ([…]) cell line. The format is functional. The conditions noted are these: read-out: ED50 (the source's name).
The test system of assay [3] is SK-MEL-2. Kind of assay: In vitro anticancer activity against human melanoma cancer (SK-MEL-2) cell line. The class given is functional.
The subject of the next assay is A549. Kind of assay: In vitro anticancer activity against human lung (A549) cell line. The format is functional. The following applies: for EC50: read-out: ED50 (the source's name).
In a further assay the test system is U-87 MG. The assay is described as follows: In vitro anticancer activity against human glioblastoma tumor cell line (U-87-MG). The conditions noted are these: for EC50: read-out: ED50 (the source's name). The class given is functional, U-87MG ATCC.
The subject of assay [4] is KB-VIN. Kind of assay: In vitro anticancer activity against human vincristine-resistant tumor cell line (KB-VIN). The conditions noted are these: read-out: ED50 (the source's name).
In a further assay the test system is PC-3. The assay is described as follows: In vitro anticancer activity against human prostate (PC-3) cell line. The class given is functional. The conditions noted are these: for EC50: read-out: ED50 (the source's name).
A further assay concerns MCF7. The assay is described as follows: In vitro anticancer activity against human breast (MCF-7) cell line. The format is functional. The conditions noted are these: for EC50: read-out: ED50 (the source's name).
The next assay has as its system HCT-8. The assay is described as follows: In vitro anticancer activity against human ileocecal tumor cell line (HCT-8). The class given is functional. The following applies: for EC50: read-out: ED50 (the source's name).
Assay [5] has as its system KB-VIN. Kind of assay: In vitro anticancer activity against human vincristine-resistant tumor cell line (KB-VIN).
For assay [6], the system named is SK-MEL-2. The assay is described as follows: In vitro anticancer activity against human melanoma cancer (SK-MEL-2) cell line; not active at 20 ug/mL. The class given is functional, cell-based.

Regarding `COc1ccc2c(c1)OC(C)=C(O)N2C=O`, the EC50 in assay [1] is 4 µg/mL (≈ 18.1 µM); in [2], 2.4 µg/mL (≈ 10.8 µM); with SK-MEL-2 [3] (read-out: ED50 (the source's name)), > 5 µg/mL; in the assay with A549, 3.6 µg/mL (≈ 16.3 µM); in the assay with U-87 MG it was > 5 µg/mL; with KB-VIN [4] it was 3.5 µg/mL (≈ 15.8 µM). The EC50 with PC-3 worked out at 4.7 µg/mL (≈ 21.2 µM); in the assay with MCF7, 4 µg/mL (≈ 18.1 µM); in the assay on HCT-8, 3.6 µg/mL (≈ 16.3 µM). The Inhibition in the assay with SK-MEL-2 [3] amounted to 30%; in the assay with U-87 MG, 36%.
For the molecule `COC1=C(C)Oc2cc(OC)ccc2N1C=O`, the Inhibition came to 22% in assay [1]; 36% in the assay on A549; 19% in the assay on U-87 MG; 20% in the assay on KB-VIN [5]; 37% in the assay with PC-3; 49% in the assay on MCF7. In addition, in the assay with HCT-8, the Inhibition is on record as 39%. The EC50 in [1] was > 20 µg/mL; in [2] it was 20 µg/mL (≈ 85 µM); in the assay with A549, > 20 µg/mL; in the assay on U-87 MG it was > 20 µg/mL; with KB-VIN [4], > 20 µg/mL; in the assay on PC-3, > 20 µg/mL. The EC50 in the assay with MCF7 and in the assay on HCT-8 was > 20 µg/mL throughout. In addition, the ED50 entry in the assay on SK-MEL-2 [6] is “inactive”.

What is called Inhibition is the share of the control response that was lost under treatment. High values mean a response far below the control, low ones a response near the control.
